We go through 18 compounds from publication PMC3798429, “Exploring the Trypanosoma brucei Hsp83 Potential as a Target for Structure Guided Drug Design” (PLoS Neglected Tropical Diseases, 2013).

As a reminder, the EC50 is the midpoint of the concentration-response curve.

“And” between values parts separate entries of the source, which are not always exact repeats. Equal entries are not always repeated. Where two headings read alike, the source gives them in different places. Marks after values point to notes of the source that are not given here.

For assay [1], the target named is T1, TbHsp83 NTD (Trypanosoma brucei brucei, UniProt P12861). The assay is classed as binding. As to conditions: TbHsp83 NTD, inhibitor 25 µM, shifts above 2°C considered significant. On the procedure: (§1) DSF screening was carried out using a LightCycler 480 Real Time PCR System (Roche Applied Science, Quebec, Canada). The NTDs from TbHsp83 as well as human Hsp90s α and β were buffered in 100 mM hepes pH 7.5, 150 mM NaCl and assayed in a 384-well format. The final concentration of the protein sample was optimized between 0.05 and 0.2 mg/ml for each NTD (concentration selected based on pre-testing results to avoid saturation of the fluorescence detector). […] The recorded fluorescence reads were fitted to the Boltzmann sigmoid function using Bioactive software (Harbinger Biotechnology and Engineering Corp., Ontario, Canada). The inflection point of each fitted curve is defined as the melting temperature (T m). […] Thermal shifts above 2°C were considered significant.

A further assay concerns T2, Human Hsp90α.
T2 construct: The NTDs from TbHsp83 as well as human Hsp90s α and β
Description: Differential scanning fluorimetry (DSF) thermal shift, human Hsp90α NTD. It is filed as binding. The conditions noted are these: inhibitor 25 µM. The protocol: as §1

In assay [2] the test system is T3, Human Hsp90β.
T3 construct: The NTDs from TbHsp83 as well as human Hsp90s α and β
Put plainly: Differential scanning fluorimetry (DSF) thermal shift, human Hsp90β NTD. The assay is classed as binding. As to conditions: inhibitor 25 µM. The protocol: as §1
(Differential scanning fluorimetry follows unfolding on heating by fluorescence.)

For a further assay, the system named is T. brucei 427. Description: Parasite growth inhibition assay. The assay is classed as cell-based. The conditions noted are these: Trypanosoma brucei. The protocol:
Assay conditions for T. brucei 427 cell based assay were followed as previously reported in the literature.
Several of the compounds characterized using DSF and ITC assays were evaluated for their ability to kill T. brucei in a continuous in vitro culture system.

The target in assay [3] is T1, TbHsp83 NTD. Put plainly: biochemical. It is filed as binding.
Assay [4] relates to TbHsp83 NTD. It is filed as binding. As to conditions: DSF comparison of TbHsp83, Hsp90α and Hsp90β. On the procedure:
as §1

The subject of the next assay is Trypanosoma brucei. Also on record: method as in PMID 23630365. As to conditions: cited from earlier work.
The next assay has as its target Human TRAP-1. As to conditions: read-out: K d (previous ITC measurements); cited from earlier work. Background: ITC needs no label: the signal is the heat of the interaction.
The target in the next assay is Yeast Hsp83. The conditions noted are these: read-out: K d (previous ITC measurements); cited from earlier work.
Assay [5] has as its target T3, Human Hsp90β. As to conditions: read-out: K d (previous ITC measurements); cited from earlier work.
The subject of another assay is Plasmodium. Also on record: method as in PMID 12584193. The conditions noted are these: cited from earlier work.
Where [6] appears, read: blood stream stage T. brucei 427, in vitro culture, read-out: EC50.
Setting [7] is: ITC, 20°C, TbHsp83 NTD, read-out: K d.

T1 sequence (P12861 1-213): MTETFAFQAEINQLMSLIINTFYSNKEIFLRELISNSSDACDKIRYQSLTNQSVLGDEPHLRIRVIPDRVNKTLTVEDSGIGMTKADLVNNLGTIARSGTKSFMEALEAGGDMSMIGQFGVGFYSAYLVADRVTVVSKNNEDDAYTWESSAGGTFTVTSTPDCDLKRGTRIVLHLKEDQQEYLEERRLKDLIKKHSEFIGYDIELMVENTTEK

Regarding `CC(=O)c1ccc(N2C3CCC2CC(NC(=O)c2ccc(C(N)=O)c(NC4CCC(O)CC4)c2)C3)nc1` (stereo not drawn) [Compound 6, N4-[8-(5-acetylpyridin-2-yl)-8-azabicyclo[3.2.1]oct-3-endo-yl]-2-[(trans-4-hydroxycyclohexyl)amino]benzene-1,4-dicarboxamide], the ΔT m at TbHsp83 NTD [1] stood at 10.4 °C; with Human Hsp90α, 8.5 °C; in the assay with Human Hsp90β [2], 4.9 °C. In addition, in the assay on T. brucei 427 (setting [6]), the EC50 is 220 nM.
In the case of `CCNC(=O)c1cc2c(-c3cc(OCCN(CC)CC)c(Cl)cc3Cl)nc(N)nc2s1` [Compound 3, 2-amino-4-[2,4-dichloro-5-(2-diethylaminoethoxy)phenyl]thiopheno[2,3-d]pyrimidine-6-carboxylic acid ethylamide], the ΔT m was determined as 12.7 °C at TbHsp83 NTD [1], 14.7 °C in the assay with Human Hsp90α and 12.9 °C in the assay with Human Hsp90β [2]. Besides, the Kd on TbHsp83 NTD [3] (setting [7]) is 26 nM. Also, the EC50 in the assay on T. brucei 427 came to 210 nM.
Regarding `C[C@@H]1C[C@H]2O[C@@H]2/C=C\C=C\C(=O)Cc2c(Cl)c(O)cc(O)c2C(=O)O1` [Radicicol], the ΔT m is 6.5 °C on TbHsp83 NTD [1], 18.8 °C in the assay with Human Hsp90α and 15.6 °C in the assay with Human Hsp90β [2]. Further, the “binding preference TbHsp83 vs human Hsp90” value with TbHsp83 NTD [4] is “stronger affinity for human Hsp90”. Besides, in the assay on Trypanosoma brucei, the EC50 was 70 nM. Further, the Kd on Human TRAP-1 is 25 nM; on Yeast Hsp83 it was 16 nM.
As to `CCNC(=O)c1noc(-c2cc(C(C)C)c(O)cc2O)c1-c1ccc(CN2CCOCC2)cc1` [NVP-AUY922], the ΔT m on TbHsp83 NTD [1] was 18.5 °C; in the assay with Human Hsp90α it was 22.3 °C; with Human Hsp90β [2], 19.6 °C. Moreover, in the assay with TbHsp83 NTD [4], the “binding preference TbHsp83 vs human Hsp90” value is reported as “stronger affinity for human Hsp90”. Also, the Kd at TbHsp83 NTD [3] (setting [7]) came to 3 nM.
Turning to `Oc1cc(O)c(-c2noc3ccc(NCCN4CCOCC4)cc23)cc1Cl` [CAY10607], the ΔT m on TbHsp83 NTD [1] turned out to be 13.3 °C; with Human Hsp90α it was 15.3 °C; with Human Hsp90β [2], 12.1 °C. Also, the Kd at TbHsp83 NTD [3] (setting [7]) was found to be 10 nM.
In the case of `CC1(C)CC(=O)c2c(C(F)(F)F)nn(-c3ccc(C(N)=O)c(N[C@H]4CC[C@H](O)CC4)c3)c2C1` [Compound 4, 4-[6,6-dimethyl-4-oxo-3-(trifluoromethyl)-4,5,6,7-tetrahydro-1H-indazol-1-yl]-2-[(trans-4-hydroxycyclohexyl)amino]benzamide], at TbHsp83 NTD [1], the ΔT m came to 15.5 °C. The Kd on TbHsp83 NTD [3] (setting [7]) was found to be 3 nM; at TbHsp83 NTD [3] (ITC, read-out: K d), 2.8 nM. For the same compound, in the assay on T. brucei 427 (setting [6]), the EC50 came to 100 nM.
Consider `CO[C@H]1/C=C\C=C(/C)C(=O)NC2=CC(=O)C(NCCN(C)C)=C(C[C@@H](C)C[C@H](OC)[C@H](O)[C@@H](C)/C=C(\C)[C@@H]1OC(N)=O)C2=O` [Compound 17-DAMG-GA, 17-DAMG-GA], for which the ΔT m on TbHsp83 NTD [1] turned out to be 11.7 °C; in the assay with Human Hsp90α it was 5.5 °C; in the assay with Human Hsp90β [2] it was 3.9 °C. In the assay on Trypanosoma brucei, the EC50 was 3 nM. Also, the Kd on Human Hsp90β [5] is 350 nM.
With `COC1=C2C[C@@H](C)C[C@H](OC)[C@H](O)[C@@H](C)/C=C(\C)[C@H](OC(N)=O)[C@@H](OC)/C=C\C=C(/C)C(=O)NC(=CC1=O)C2=O` [Geldanamycin], on TbHsp83 NTD [1], the ΔT m stood at 14.8 °C. In addition, the Kd on TbHsp83 NTD [3] (K d, ITC, 20°C, TbHsp83 NTD) was 1000 nM; on Yeast Hsp83, 2900 nM. The EC50 with Trypanosoma brucei was 13 nM. Moreover, the “concentration inhibiting parasite growth” value in the assay with Plasmodium is on record as “sub-micromolar”.
`Nc1ncnc2c1ncn2[C@@H]1O[C@H](COP(=O)(O)OP(=O)(O)NP(=O)(O)O)[C@@H](O)[C@H]1O` [AMPPNP]: the ΔT m at TbHsp83 NTD [1] turned out to be 0.3 °C. The Kd at Human Hsp90β [5] is 141000 nM; on Yeast Hsp83, 111000 nM.
As to AMPPSP, the Kd on Human TRAP-1 was 109000 nM.
Regarding `CO[C@H]1/C=C\C=C(/C)C(=O)NC2=CC(=O)C(NCCN3CCCC3)=C(C[C@@H](C)C[C@H](OC)[C@H](O)[C@@H](C)/C=C(\C)[C@@H]1OC(N)=O)C2=O` [Compound 17-AEP-GA, 17-AEP-GA], the results for the ΔT m on TbHsp83 NTD [1], in the assay on Human Hsp90α and in the assay with Human Hsp90β [2] were 13.8 °C, 5.1 °C and 4.2 °C, respectively. Besides, the Kd on TbHsp83 NTD [3] (setting [7]) was determined as 714 nM.
As to `Nc1ncnc2c1ncn2[C@@H]1O[C@H](COP(=O)(O)OP(=O)(O)O)[C@@H](O)[C@H]1O` [ADP], the ΔT m on TbHsp83 NTD [1] is 0.1 °C; in the assay on Human Hsp90α, 0.3^a °C; with Human Hsp90β [2], 0.5^b °C. Further, the figures for the Kd at Human Hsp90β [5] and on Human TRAP-1 were 15000 nM and 35000 nM, respectively.
On to `CCc1cc(-c2n[nH]c(C)c2-c2ccc3c(c2)OCCO3)c(O)cc1O` [CCT018159], for which the ΔT m came out at 8.01 °C on TbHsp83 NTD [1], 12.1 °C in the assay on Human Hsp90α and 7.5 °C in the assay with Human Hsp90β [2]. Also, the Kd on TbHsp83 NTD [3] (setting [7]) was 4980 nM.
Regarding `CO[C@H]1[C@@H](OC)C[C@H](C)[C@@H](OC)C2=CC(=O)C=C(NC(=O)/C(C)=C/C=C\[C@H](C)[C@@H](OC(N)=O)/C(C)=C/[C@@H]1C)C2=O` [Macbecin I], the ΔT m on TbHsp83 NTD [1] came to 16.9 °C; in the assay on Human Hsp90α it was 10.2 °C; with Human Hsp90β [2], 8.6 °C. For the same compound, the “binding preference TbHsp83 vs human Hsp90” value with TbHsp83 NTD [4] is on record as “markedly stronger binding to TbHsp83”. Moreover, the “fold higher affinity of T. brucei Hsp83 compared to K d reported for yeast counterpart” value at TbHsp83 NTD [3] (ITC K d vs yeast value of ref 45) is 2.5 fold. Also, the Kd at TbHsp83 NTD [3] (K d, ITC, 20°C, TbHsp83 NTD) is 93 nM; at Yeast Hsp83 it was 240 nM.
Consider `COc1c(C)cnc(Cn2cnc3c(Cl)nc(N)nc32)c1C` [Compound 1, 6-chloro-9-(4-methoxy-3,-dimethylpyridin-2-ylmethyl)-9H-purin-2-ylamine], for which the ΔT m on TbHsp83 NTD [1] was 10.5 °C; in the assay on Human Hsp90β [2], 8.7 °C. On TbHsp83 NTD [3] (K d, ITC, 20°C, TbHsp83 NTD), this compound yielded a Kd of 9 nM. For the same compound, the EC50 in the assay on T. brucei 427 (setting [6]) came to 310 nM.
On to `C=CCNC1=C2C[C@@H](C)C[C@H](OC)[C@H](O)[C@@H](C)/C=C(\C)[C@H](OC(N)=O)[C@@H](OC)/C=C\C=C(/C)C(=O)NC(=CC1=O)C2=O` [Compound 17-AAG-GA, 17-AAG-GA], for which the ΔT m was 10.7 °C on TbHsp83 NTD [1], 3.1 °C in the assay on Human Hsp90α and 1.6 °C with Human Hsp90β [2]. In the assay with Trypanosoma brucei, the EC50 is 38 nM.
With `CSCCNc1cc(-n2nc(C(F)(F)F)c3c2CC(C)(C)CC3=O)ccc1C(N)=O` [Compound 5, 4-(6,6-dimethyl-4-oxo-3-(trifluoromethyl)-4,5,6,7-tetrahydro-1H-indazol-1-yl)-2-((2-(methylthio)ethyl)amino)benzamide], the ΔT m at TbHsp83 NTD [1] amounted to 12.03 °C; in the assay with Human Hsp90α, 2.3 °C; in the assay on Human Hsp90β [2], 0.4 °C. In addition, the “binding preference TbHsp83 vs human Hsp90” value with TbHsp83 NTD [4] was “preferentially binds TbHsp83”; with TbHsp83 NTD [4] (listed as compound 5) it was “markedly stronger binding to TbHsp83”. The Kd at TbHsp83 NTD [3] (setting [7]) came to 794 nM. Further, the EC50 in the assay with T. brucei 427 (setting [6]) worked out at 130 nM.
Take `CCC(C)n1c(Cc2cc(OC)ccc2OC)nc2c(N)nc(C)nc21` (stereo not shown) [Compound 2, 9-(sec-butyl)-8-(2,5-dimethoxybenzyl)-2-methyl-9H-purin-6-amine]: the ΔT m at TbHsp83 NTD [1] is 0.8 °C; at TbHsp83 NTD [1] (listed as compound 2) it was “non-significant”; in the assay with Human Hsp90α, 1.2 °C; in the assay on Human Hsp90β [2] it was −0.5 °C. Also, the K d result on TbHsp83 NTD [3] (ITC, 20°C, TbHsp83 NTD) is listed as “lowest affinity measured by ITC”. Besides, at TbHsp83 NTD [3] (setting [7]), the Kd is 9300 nM and 9260 nM. In the assay on T. brucei 427 (setting [6]), the EC50 was 13000 nM.
